Reference: patent US20230374015A1, “INHIBITORS OF FIBROBLAST GROWTH FACTOR RECEPTOR KINASES” (Kinnate Biopharma Inc., priority 2020, published 2023)

Molecular target: FGFR2 (Homo sapiens, UniProt P21802)
Test: FGFR2 Kinase Protocol - Condition 2 (Reaction Biology HotSpot radiometric kinase assay, no preincubation)
Type: biochemical
Settings: poly[Glu:Tyr] (4:1) 0.2 mg/ml, ATP 100 microM, 2 hr room temperature
In short: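 Radiometric HotSpot format: FGFR2 (wildtype or V564F) with poly[Glu:Tyr] (4:1) at 0.2 mg/ml in HEPES pH 7.5 buffer with 1% DMSO; ATP plus [γ33P]ATP at 100 µM total, added without preincubation. Reactions ran 2 hr at room temperature, then filter-bound. IC50 from 10-dose, 3-fold series versus DMSO control.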

FGFR2, sequence (P21802 22-821): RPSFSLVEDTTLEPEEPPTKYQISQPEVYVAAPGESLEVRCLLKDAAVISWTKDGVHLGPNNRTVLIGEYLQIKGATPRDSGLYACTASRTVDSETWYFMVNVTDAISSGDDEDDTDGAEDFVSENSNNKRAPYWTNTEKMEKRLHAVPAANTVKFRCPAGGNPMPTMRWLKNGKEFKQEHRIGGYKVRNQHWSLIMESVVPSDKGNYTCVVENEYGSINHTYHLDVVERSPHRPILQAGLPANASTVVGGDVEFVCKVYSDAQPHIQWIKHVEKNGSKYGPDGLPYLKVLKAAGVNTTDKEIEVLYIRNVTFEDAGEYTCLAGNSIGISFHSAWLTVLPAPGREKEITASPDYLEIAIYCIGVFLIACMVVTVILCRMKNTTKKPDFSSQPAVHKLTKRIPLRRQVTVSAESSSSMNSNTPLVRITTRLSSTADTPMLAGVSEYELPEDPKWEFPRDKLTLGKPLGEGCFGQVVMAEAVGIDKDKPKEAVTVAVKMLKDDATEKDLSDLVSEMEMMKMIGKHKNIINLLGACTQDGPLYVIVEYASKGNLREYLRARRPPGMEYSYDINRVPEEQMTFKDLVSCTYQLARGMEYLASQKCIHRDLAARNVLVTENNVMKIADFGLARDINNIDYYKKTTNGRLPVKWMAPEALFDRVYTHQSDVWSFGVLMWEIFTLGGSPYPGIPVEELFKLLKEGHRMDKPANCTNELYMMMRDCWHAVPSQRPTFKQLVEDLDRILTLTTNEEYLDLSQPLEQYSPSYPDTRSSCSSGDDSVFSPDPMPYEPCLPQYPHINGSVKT

| SMILES | IC50 [nM] |
| --- | --- |
| C=CC(=O)N1C[C@@H](n2nc(C#Cc3ccn4ncnc4c3)c3c(N)ncnc32)C[C@@H]1COC [Example 114, 1-[(2R,4S)-4-[4-Amino-3-(2-[[1,2,4]triazolo[1,5-a]pyridin-7-yl]ethynyl)pyrazolo[3,4-d]pyrimidin-1-yl]-2-(methoxymethyl)pyrrolidin-1-yl]prop-2-en-1-one] | 100 to 1000 |
| C=CC(=O)N1CC[C@H](n2nc(C#Cc3cc4ncn(C)c4c(F)c3Cl)c3c(N)nccc32)C1 [Example 148, 1-[(3S)-3-{4-Amino-3-[2-(6-chloro-7-fluoro-1-methyl-1,3-benzodiazol-5-yl)ethynyl]pyrazolo[4,3-c]pyridin-1-yl}pyrrolidin-1-yl]prop-2-en-1-one] | ≤ 100 |
| C=CC(=O)N1C[C@@H](n2nc(C#Cc3cc4ncn(C)c4cc3F)c3c(N)ncnc32)C[C@@H]1C(F)F [Example 177, 1-((2R,4S)-4-(4-amino-3-((6-fluoro-1-methyl-1H-benzo[d]imidazol-5-yl)ethynyl)-1H-pyrazolo[3,4-d]pyrimidin-1-yl)-2-(difluoromethyl)pyrrolidin-1-yl)prop-2-en-1-one] | ≤ 100 |
| C=CC(=O)N1C[C@@H](n2nc(C#Cc3cc4ncn(C5CC5)c4cc3F)c3c(N)nccc32)C[C@@H]1C(F)F [Example 182, 1-((2R,4S)-4-(4-amino-3-((1-cyclopropyl-6-fluoro-1H-benzo[d]imidazol-5-yl)ethynyl)-1H-pyrazolo[4,3-c]pyridin-1-yl)-2-(difluoromethyl)pyrrolidin-1-yl)prop-2-en-1-one] | ≤ 100 |
| C=CC(=O)N1C[C@@H](n2cc(C#Cc3cc4nc(C)n(C(F)F)c4cc3Cl)c3c(N)ncnc32)C[C@@H]1COC [Example 131, 1-[(2R,4S)-4-(4-Amino-5-{2-[6-chloro-1-(difluoromethyl)-2-methyl-1,3-benzodiazol-5-yl]ethynyl}pyrrolo[2,3-d]pyrimidin-7-yl)-2-(methoxymethyl)pyrrolidin-1-yl]prop-2-en-1-one] | ≤ 100 |

More lines, now with the values ahead:

| IC50 [nM] | SMILES |
| --- | --- |
| ≤ 100 | C=CC(=O)N1C[C@@H](n2nc(C#Cc3cc4ncn(CC)c4c(F)c3F)c3c(N)ncnc32)C[C@@H]1CC#N [Example 157, 2-[(2R,4S)-4-{4-Amino-3-[2-(1-ethyl-6,7-difluoro-1,3-benzodiazol-5-yl)ethynyl]pyrazolo[3,4-d]pyrimidin-1-yl}-1-(prop-2-enoyl)pyrrolidin-2-yl]acetonitrile] |
| ≤ 100 | C=CC(=O)N1C[C@@H](n2nc(C#Cc3c(Cl)cc4c(nc(C)n4C)c3F)c3c(N)ncnc32)C[C@@H]1COC [Example 102, 1-((2R,4S)-4-(4-Amino-3-((6-chloro-4-fluoro-1,2-dimethyl-1H-benzo[d]imidazol-5-yl)ethynyl)-1H-pyrazolo[3,4-d]pyrimidin-1-yl)-2-(methoxymethyl)pyrrolidin-1-yl)prop-2-en-1-one] |
| ≤ 100 | C=CC(=O)N1C[C@@H](n2nc(C#Cc3ccc4scnc4c3)c3c(N)ncnc32)C[C@@H]1COC [Example 112, 1-((2R,4S)-4-(4-Amino-3-(benzo[d]thiazol-5-ylethynyl)-1H-pyrazolo[3,4-d]pyrimidin-1-yl)-2-(methoxymethyl)pyrrolidin-1-yl)prop-2-en-1-one] |
| ≤ 100 | C=CC(=O)N1C[C@@H](n2cc(C#Cc3c(Cl)cc4c(ncn4C)c3F)c3c(N)ncnc32)C[C@@H]1COC [Example 106, 1-[(2R,4S)-4-[4-Amino-5-[2-(6-chloro-4-fluoro-1-methyl-1,3-benzodiazol-5-yl)ethynyl]pyrrolo[2,3-d]pyrimidin-7-yl]-2-(methoxymethyl)pyrrolidin-1-yl]prop-2-en-1-one] |
| ≤ 100 | C=CC(=O)N1C[C@@H](n2nc(C#Cc3cc4ncn(CC)c4cc3F)c3c(N)nccc32)C[C@@H]1COC [Example 79, 1-[(2R,4S)-4-[4-Amino-3-[2-(1-ethyl-6-fluoro-1,3-benzodiazol-5-yl)ethynyl]pyrazolo[4,3-c]pyridin-1-yl]-2-(methoxymethyl)pyrrolidin-1-yl]prop-2-en-1-one] |
